Experimental data from patent US4530932A, “4-(1H-indol-3-yl)-α-methyl-piperidine-1-ethanol derivatives” (Roussel Uclaf, priority 1982, dated 1985).
Structures can show the parent of a compound that is named as a salt. Where two headings read alike, the source gives them in different places.

Columns and labels:
β1 adrenergic receptors = target: T1, β1 adrenergic receptors (Rattus norvegicus, UniProt P18090); assay: Affinity for β1 adrenergic receptors (3H dihydroalprenolol displacement, rat brain cortex); type: binding; conditions: relative to propranolol, 37° C., pH 7.7
T1 construct: 10 cortexes removed from the brains of male rats weighing an average of 150 g; from tissue; host or cells: cerebral cortex of male rats (membranes)
Description: The test was inspired by that of Mohler et al [Science, Vol. 198 (1977), p. 849-851] and 10 cortexes removed from the brains of male rats weighing an average of 150 g were homogenized in 90 ml of 0.32M of sucrose. After centrifuging the homogenized mixture at 1000 g for 20 minutes at 0° C., the surnageant was centrifuged at 30,000 g for 15 minutes at 0° to 4° C. The culot was suspended in 120 ml of buffer Tris HCl 50 mM with a pH of 7.7 and was centrifuged at 30,000 g for 15 minutes at 0° to 4° C. The resulting culot was suspended in 480 ml of buffer Krebs Tris HCl (50 mM-pH of 7.7) and 2 ml of the suspension in the presence of 3H dihydroalprenolol at a concentration of 10^-9 M alone and with increasing concentrations of the test compound or with non-radioactive propranolol at a concentration of 10^-5 M to determine the non-specific fixation was incubated at 37° C. for 10 minutes.
The incubated suspensions were filtered through Whatman GF/C and the filters were washed 3 times with 5 ml of buffer Krebs Tris HCl (pH-7.7) at 0° C. The radioactivity of the filters was measured by liquid scintillation and the affinity of the test compounds for β1 -adrenergic receptors was compared using propranolol as a standard as in Test D. The results are reported in Table VI.

[1] = test system: cardiac rhythm troubles in guinea pigs; assay: Antiarythmic action (K-strophanthine and adrenaline induced cardiac rhythm troubles); type: in vivo, guinea pig; conditions: Cavia porcellus, 1 h, oral 10 mg/kg, one hour before K-strophanthine and adrenaline perfusion, read-out: Percentage of protection (lengthening of the time of appearance of cardiac rhythm troubles as compared to controls)
Description: Male guinea pigs weighing between 450 and 500 g were tracheotomized while anesthesized by intraperitoneal administration of […] of urethane and were subjected to artifical respiration of 40 to 50 breaths of 5 ml per minute. Needles were subcutaneously implanted to register an electrocardiogram of the guinea pigs for the signal of D II derivation. The test products were orally administered and one hour later, the jugular vein of the guinea pigs were perfused with 0.5 ml per minute of a solution of 150 γ/ml of K-strophanthine and 0.5 ml per minute of a solution of 5 γ/ml of adrenaline and the number of times of the appearance of cardiac rhythm troubles was noted. The results are expressed in percentage of protection with an oral dose of 10 mg/kg of test product that is to say the percentage of lengthening of the time of appearance of cardiac rhythm troubles as compared to the controls.

[2] = test system: Rat arteries (arterial contractions, entry of calcium ions into the cells of smooth muscles); assay: In vitro anticalcic activity (inhibition of potassium-depolarized, calcium-induced contractions of isolated rat arteries); type: cell-based; conditions: dose inhibiting by 50% the contractions caused by potassium ions (100 mM), 37° C., read-out: CI50 (the source's name)
Description: Rat arteries decoupled in a spiral were attached to a tension collector and were maintained in tanks containing 2.5 ml of Krebs-sodium bicarbonate buffer (NaCl: 120.8 mM, KCl: 5.9 mM, MgCl2 : 1.2 mM, NaH2 PO4 : 1.2 mM, NaHCO3 : 15.5 mM, glucose: 12.6 mM), at 37° C. covered with a 95%-5% oxygen-carbon dioxide mixture. The preparations were depolarized with a buffered solution containing 100 mM of potassium ions (NaCl: 26.7 mM, KCl: 100 mM, MgCl2 : 1.2 mM, NaH2 PO4 : 1.2 mM, NaHCO3 : 15.5 mM, glucose 12.6 mM).
A volume of 25 μl of calcium chloride was added to the mixture in a manner to obtain a range of increasing concentrations of calcium ions from 0.1 to 3.0 mM and the contractions of the artery were measured to obtain a control. The operation with range of calcium ions was repeated every 15 minutes and the preparation was washed 4 times after each range. When a stable response was obtained, the operation with the range of calcium ions was effected in the presence of varying concentrations of test compounds until a stable response was obtained.
The arterial contractions depend on the entry of calcium ions into the cells of smooth muscles and are provoked by depolarization of smooth muscles by potassium ions and by action of noradrenaline freed by presynapthic level. By recommencing the operation with denerved arteries by the action of 6-hydroxy-dopamine, the specific action due to noradrenaline is suppressed.

[3] = test system: carotidien arterial pressure in rats; assay: Hypotensive activity (carotidien arterial pressure in anesthesized rats); type: in vivo, rat (Wistar); conditions: rat, intravenous
Description: The hypotensive activity was studied on male rats of the Wistar strain weighing about 300 g and anesthesized with 50 mg/kg of nembutal intraveinously. The test products were administered intraveinously by the jugular vein and the carotidien arterial pressure was measured before and after administration of the test compounds. The variations expressed in percentage of arterial pressure after administration with respect to the initial pressure is reported in Table IV.

mice = assay: Acute toxicity (DL0, oral); type: in vivo, mouse; parameters: unit not given here
α1 adrenergic receptors = assay: Affinity for α1 adrenergic receptors (3H prazosine displacement, rat brain); type: binding; conditions: relative to phentolamine (ARL=100×(CB/CX)), 25° C., pH 7.7
Description: After centrifugation at 30,000 g for 15 minutes at 0° to 4° C., the culot was suspended in 240 ml of buffer Tris HCl 50 mM (pH-7.7) and the suspension was centrifuged at 30,000 g for 20 minutes at 0° to 4° C. The new culot was suspended in 480 ml of buffer Krebs Tris HCl (pH of 7.7-50 mM) and 2 ml of the suspension in the presence of 3H prazosine at a concentration of […] alone and with increasing concentrations of the test compound or with non-radioactive phentolamine at a concentration of 10^-5 M to determine the non-specific fixation was incubated at 25° C. for 30 minutes.
The incubated suspensions were filtered through Whatman FG/C and the filtered were washed with 3 times with 5 ml of buffer Krebs Tris HCl-pH of 7.7 at 0° to 4° C. The radioactivity of the filters was measured by liquid scintillation and the affinity of the test compound for α1 adrenergic receptors was compared relative to phentolamine as the reference compound by the formula
CD=concentration of phentolamine inhibiting by 50% the specific fixation of 3H prazosine.
CX=concentration of test product inhibiting by 50% the specific fixation of 3H prazosine.

β2 -adrenergic receptors = target: T2, β2 -adrenergic receptors (Rattus norvegicus, UniProt P10608); assay: Affinity for β2 adrenergic receptors (3H dihydroalprenolol displacement, rat cerebellum); type: binding; conditions: relative to propranolol, 37° C., pH 7.7
T2 construct: cerebellums of male rats weighing an average of 150 g; from tissue; host or cells: cerebellum of male rats (membranes)
Description: The technique was inspired by that of Mohler et al [Science, Vol. 198 (1977), p. 849-851] and the cerebellums of male rats weighing an average of 150 g were homogenized in 90 ml of 0.32M sucrose. After centrifugation of the homogenized mixture at 1000 g for 20 minutes at 0° C., the surnageant was centrifuged at 30,000 g for 15 minutes at 0° to 4° C. The culot was suspended in 120 ml of buffer Tris HCl (50 mM-pH of 7.7) and the suspension was centrifuged at 30,000 g for 15 minutes at 0° to 4° C. The resulting culot was suspended in 480 ml of buffer Krebs Tris HCl with a pH of 7.7 and 2 ml of the suspension was incubated at 37° C. for 10 minutes in the presence of 3H dihydroalprenolol at a concentration of 10^-9 M alone and with increasing concentrations of the test compound or with 10^-5 M of non-radioactive propranolol to determine the non-specific fixation.
The incubated suspensions were filtered through Whatman FG/C filter and the filters were rinsed 3 times with 5 ml of buffer Krebs Tris HCl with a pH of 7.7 at 0° C. The radioactivity of the filters was measured by liquid scintillation and the affinity of the test compounds for β2 -adrenergic receptors relative to propranolol as a standard was determined similar as to Test D. The results are reported in Table VII.

[4] = 1 min, 1 minute, read-out: % Variation of arterial pressure after administration, 1 minute
[5] = 5 min, 5 minutes, read-out: % Variation of arterial pressure after administration, 5 minutes
[6] = 10 min, 10 minutes, read-out: % Variation of arterial pressure after administration, 10 minutes
[7] = 0.5 h, 30 minutes, read-out: % Variation of arterial pressure after administration, 30 minutes

T2 sequence (P10608 whole entry): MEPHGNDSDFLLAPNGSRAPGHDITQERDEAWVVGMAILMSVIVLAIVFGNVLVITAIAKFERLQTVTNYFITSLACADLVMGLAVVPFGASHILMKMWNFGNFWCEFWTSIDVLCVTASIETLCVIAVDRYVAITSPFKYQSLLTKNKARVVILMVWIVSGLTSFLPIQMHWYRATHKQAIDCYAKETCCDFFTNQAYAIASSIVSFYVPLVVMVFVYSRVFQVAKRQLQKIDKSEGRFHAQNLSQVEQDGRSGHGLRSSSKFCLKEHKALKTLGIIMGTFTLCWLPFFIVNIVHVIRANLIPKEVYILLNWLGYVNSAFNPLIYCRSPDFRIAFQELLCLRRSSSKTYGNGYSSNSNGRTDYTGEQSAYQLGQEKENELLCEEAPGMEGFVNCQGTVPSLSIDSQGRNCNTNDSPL
T1 sequence (P18090 whole entry): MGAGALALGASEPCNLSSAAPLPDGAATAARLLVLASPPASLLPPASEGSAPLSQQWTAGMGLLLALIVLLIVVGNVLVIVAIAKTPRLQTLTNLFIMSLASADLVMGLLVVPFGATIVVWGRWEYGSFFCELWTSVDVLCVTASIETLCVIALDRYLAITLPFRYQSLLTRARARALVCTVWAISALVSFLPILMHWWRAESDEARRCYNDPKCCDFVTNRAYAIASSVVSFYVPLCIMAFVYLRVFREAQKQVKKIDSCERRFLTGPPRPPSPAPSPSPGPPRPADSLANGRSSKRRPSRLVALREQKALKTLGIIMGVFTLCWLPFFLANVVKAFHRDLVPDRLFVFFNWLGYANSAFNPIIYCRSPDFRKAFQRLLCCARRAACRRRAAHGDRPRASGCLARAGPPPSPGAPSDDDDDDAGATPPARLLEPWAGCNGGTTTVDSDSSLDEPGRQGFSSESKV

| Structure (SMILES) | ARL in % (relative affinity for β1 adrenergic receptors) (β1 adrenergic receptors) | change in vivo at 10 mg/kg [1] | IC50 [2] | change in vivo at 1 mg/kg [3, 4] | change in vivo at 1 mg/kg [3, 5] | change in vivo at 1 mg/kg [3, 6] | change in vivo at 1 mg/kg [3, 7] | DL0 (maximum dose which did not cause any deaths after 8 days) (mice) | % Arl (relative affinity for α1 adrenergic receptors) (α1 adrenergic receptors) | ARL in % (relative affinity for β2 adrenergic receptors) (β2 -adrenergic receptors) |
| --- | --- | --- | --- | --- | --- | --- | --- | --- | --- | --- |
| OC(COc1ccccc1Cl)CN1CCC(c2c[nH]c3ccccc23)CC1 (stereo not drawn) [Example 10, 4-(1H--indol-3-yl)-α-[2-chlorophenoxymethyl]-piperidine-1-ethanol hydrochloride] | 1.95% | 59% | 2 µM | -21% | -20% | -12% | -20% | > 100 | – | – |
| Oc1ccccc1OCC(O)CN1CCC(c2c[nH]c3ccccc23)CC1 (stereo not drawn) [Example 13, 4-(1H--indol-3-yl)-α-[2-hydroxy-phenoxymethyl]-piperidine-1-ethanol hydrochloride] | 1.1% | 112% | 4.5 µM | – | – | – | – | > 100 | 293% | – |
| C=CCc1ccccc1OCC(O)CN1CCC(c2c[nH]c3ccccc23)CC1 (stereo not drawn) [Example 7, 4-(1H--indol-3-yl)-α-[2-prop-2-enyl)-phenoxymethyl]-piperidine-1-ethanol hydrochloride] | 3.7% | 50% | 0.32 µM | – | – | – | – | > 200 | 100% | 10% |
| OC(COc1ccccc1F)CN1CCC(c2c[nH]c3ccccc23)CC1 (stereo not drawn) [Example 12, 4-(1H--indol-3-yl)-α-[2-fluorophenoxymethyl]-piperidine-1-ethanol hydrochloride] | 1.2% | 90% | 3.2 µM | -27% | -14% | -27% | -24% | 80 | 233% | – |
| C=CCOc1ccccc1OCC(O)CN1CCC(c2c[nH]c3ccccc23)CC1 (stereo not drawn) [Example 1, 4-(1H-indol-3-yl)-α-[{2-(prop-2-enyloxy)-phenoxy}-methyl]-piperidine-1-ethanol hydrochloride] | 7.3% | 63% | 4 µM | – | – | – | – | 100 | 247% | 10.5% |
| C#CCc1ccccc1OCC(O)CN1CCC(c2c[nH]c3ccccc23)CC1 (stereo not drawn) [Example 16, 4-(1H--indol-3-yl)-α-[2-(prop-2-ynyl)-phenoxymethyl]-piperidine-1-ethanol hydrochloride] | 5.8% | 71% | 1.6 µM | – | – | – | – | > 100 | 321% | 11% |
| O=[N+]([O-])c1ccccc1OCC(O)CN1CCC(c2c[nH]c3ccccc23)CC1 (stereo not drawn) [Example 11, 4-(1H--indol-3-yl)-α-[2-nitrophenoxymethyl]-piperidine-1-ethanol hydrochloride] | 1.2% | 56% | 4.2 µM | – | – | – | – | 100 | 77% | – |
| OC(COc1cccc2ccccc12)CN1CCC(c2c[nH]c3ccccc23)CC1 (stereo not drawn) [Example 2, 4-(1H-indol-3-yl)-α-[1-naphthyloxymethyl]-piperidine-1-ethanol] | 0.9% | – | 3.5 µM | – | – | – | – | > 1000 | – | – |
| Cc1ccccc1OCC(O)CN1CCC(c2c[nH]c3ccccc23)CC1 (stereo not drawn) [Example 9, 4-(1H--indol-3-yl)-α-[2-methylphenoxymethyl]-piperidine-1-ethanol hydrochloride] | 2.55% | 48% | 3.8 µM | -21% | -9% | -25% | -20% | > 100 | 92% | – |
| OC(COc1ccccc1C1CCCCC1)CN1CCC(c2c[nH]c3ccccc23)CC1 (stereo not drawn) [Example 15, 4-(1H--indol-3-yl)-α-[2-cyclohexyl-phenoxymethyl]-piperidine-1-ethanol hydrochloride] | – | – | 5 µM | – | – | – | – | > 100 | – | 5.4% |
